How the values were obtained:
PRMT5-MEP50 = PRMT5-MEP50 (Homo sapiens, UniProt O14744); assay: PRMT5 assay (3H-SAM flashplate); conditions: PRMT5 biochemical assay
How it was run: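 PRMT5-MEP50 at 2.5 nM, preincubated 5 min with compound in 20 mM Tris-HCl pH 8.0, 1 mM DTT, 0.01% Tween at ambient temperature. Biotinylated acetylated histone H4 peptide (100 nM) and 3H-SAM (250 nM) react 60 min, quenched with 15 μM cold SAM; methylation captured on streptavidin flashplates and scintillation-counted.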

[1] = test system: m^6A in cellular mRNA of MOLM-13 cells; assay: m^6A-mRNA LC-MS/MS assay (m^6A cellular assay); type: cell-based; conditions: Homo sapiens, Table 3, 24 hours
Description: 5×10^6 MOLM-13 (DSMZ) cells were seeded into 10 cm dishes in RPMI 1640 media containing 10% fetal bovine serum and placed in a humidified tissue culture incubator at 37° C. overnight. Compounds were resuspended in 100% DMSO and dosed into each dish at a fixed concentration to comprise an 8-point dose response with a 4-fold serial dilution ranging from 25 μM to 1.5 nM in 0.25% DMSO final and allowed to incubate for 24 hours in a humidified tissue culture incubator at 37° C. Cells were harvested by centrifugation followed by mRNA extraction using DIRECT Dynabeads mRNA DIRECT kit (Life Technologies). mRNA was quantified on NanoDrop spectrophotometer (Thermo Fisher Scientific) and digested into single nucleosides using Nucleoside Digestion Mix (New England Biolabs). Nucleosides are quantified with retention time on a BEH C18 column (Waters) and the nucleoside-to-base ion mass transition of 282.1-150.1 (m^6A) and 268-136 (A) on an API 6500+ triple quadrupole mass spectrometer. Quantification is performed in comparison with the standard curve, obtained from pure nucleoside standards (Selleck Chemicals) running with the same batch of samples. Percentage m^6A in cellular mRNA is calculated as 100*(m^6A/A).

METTL3/METTL14 = METTL3/METTL14 (Homo sapiens, UniProt Q86U44); assay: METTL3-14 standard enzyme assay (3H-SAM flashplate); conditions: METTL3 biochemical assay
METTL3/METTL14, sequence (Q86U44 whole entry, species assumed): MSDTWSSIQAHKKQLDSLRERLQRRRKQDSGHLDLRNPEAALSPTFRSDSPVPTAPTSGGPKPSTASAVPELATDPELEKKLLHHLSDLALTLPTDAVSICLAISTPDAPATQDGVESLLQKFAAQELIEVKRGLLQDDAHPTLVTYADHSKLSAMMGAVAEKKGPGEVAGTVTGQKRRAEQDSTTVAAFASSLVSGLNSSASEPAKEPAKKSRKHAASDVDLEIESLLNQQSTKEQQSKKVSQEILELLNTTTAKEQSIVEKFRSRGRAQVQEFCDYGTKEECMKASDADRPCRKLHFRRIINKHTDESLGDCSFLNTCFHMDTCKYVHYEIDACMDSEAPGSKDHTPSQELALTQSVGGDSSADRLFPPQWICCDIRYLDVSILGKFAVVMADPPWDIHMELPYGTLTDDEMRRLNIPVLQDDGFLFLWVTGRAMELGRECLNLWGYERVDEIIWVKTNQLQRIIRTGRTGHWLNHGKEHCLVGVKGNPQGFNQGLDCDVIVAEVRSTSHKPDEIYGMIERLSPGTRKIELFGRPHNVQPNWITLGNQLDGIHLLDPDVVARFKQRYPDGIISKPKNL
METTL3/METTL14, sequence (Q9HCE5 whole entry partner, species assumed): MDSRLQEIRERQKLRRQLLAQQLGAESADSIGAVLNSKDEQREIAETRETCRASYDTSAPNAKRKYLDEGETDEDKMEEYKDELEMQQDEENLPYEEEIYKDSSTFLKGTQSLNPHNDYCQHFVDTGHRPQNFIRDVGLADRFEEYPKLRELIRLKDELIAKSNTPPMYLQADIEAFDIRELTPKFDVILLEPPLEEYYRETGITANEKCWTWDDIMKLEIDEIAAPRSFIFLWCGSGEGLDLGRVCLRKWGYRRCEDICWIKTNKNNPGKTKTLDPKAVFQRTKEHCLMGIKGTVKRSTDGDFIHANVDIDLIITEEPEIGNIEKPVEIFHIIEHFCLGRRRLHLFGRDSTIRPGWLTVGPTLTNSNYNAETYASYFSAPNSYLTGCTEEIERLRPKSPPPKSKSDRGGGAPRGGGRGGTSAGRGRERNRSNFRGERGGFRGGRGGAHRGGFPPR
How it was run: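 METTL3/METTL14 (2.5 nM) preincubated 5 min, then reacted with 3′-biotinylated RNA UCUGGACUAAA (100 nM) and 3H-SAM (100 nM) for 30 min at ambient temperature in 20 mM HEPES pH 7.5, 50 mM KCl, 250 μM MgCl2, 1 mM DTT. Quenched with 15 μM cold SAM; product captured on streptavidin flashplates, scintillation counted.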

FLT3-ITD = target: T1, FLT3-ITD (Homo sapiens, UniProt P36888); assay: FLT3-ITD LanthaScreen assay; type: biochemical; conditions: Table 4
T1 sequence (P36888 1-993): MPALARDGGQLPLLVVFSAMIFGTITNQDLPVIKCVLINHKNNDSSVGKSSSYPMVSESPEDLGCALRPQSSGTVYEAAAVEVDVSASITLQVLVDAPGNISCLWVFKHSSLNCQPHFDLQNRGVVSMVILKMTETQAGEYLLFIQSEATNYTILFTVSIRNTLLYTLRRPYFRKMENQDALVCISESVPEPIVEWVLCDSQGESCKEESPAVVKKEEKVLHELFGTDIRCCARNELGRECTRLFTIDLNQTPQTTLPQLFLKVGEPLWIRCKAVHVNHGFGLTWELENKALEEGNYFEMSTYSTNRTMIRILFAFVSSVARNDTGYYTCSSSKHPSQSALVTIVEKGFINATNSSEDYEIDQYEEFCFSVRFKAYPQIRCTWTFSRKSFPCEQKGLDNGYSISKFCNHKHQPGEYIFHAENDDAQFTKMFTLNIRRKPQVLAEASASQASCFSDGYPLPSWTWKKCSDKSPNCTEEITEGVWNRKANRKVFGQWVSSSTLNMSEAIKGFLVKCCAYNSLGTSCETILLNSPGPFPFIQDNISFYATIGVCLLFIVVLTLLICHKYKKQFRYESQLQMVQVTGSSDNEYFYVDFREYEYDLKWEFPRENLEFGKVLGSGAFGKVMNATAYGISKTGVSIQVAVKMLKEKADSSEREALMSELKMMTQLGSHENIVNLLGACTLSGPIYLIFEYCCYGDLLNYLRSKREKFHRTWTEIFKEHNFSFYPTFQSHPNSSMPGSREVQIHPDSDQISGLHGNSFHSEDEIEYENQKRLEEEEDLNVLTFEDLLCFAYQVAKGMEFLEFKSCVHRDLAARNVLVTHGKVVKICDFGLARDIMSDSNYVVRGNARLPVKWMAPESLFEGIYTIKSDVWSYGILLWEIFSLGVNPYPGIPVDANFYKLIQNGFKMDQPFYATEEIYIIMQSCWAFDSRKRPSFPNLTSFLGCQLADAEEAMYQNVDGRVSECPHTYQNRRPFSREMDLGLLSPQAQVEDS
Description: (§1) FLT3/FLT3-ITD LanthaScreen Assays
(§2) Assays were performed in a 10 μl-volume in 384-well polypropylene microplates (Perkin Elmer Proxiplate, cat. No. 6059480) at ambient temperature. Optimized 1× assay buffer was 50 mM Hepes pH 7.5, 2 mM DTT, 0.01% Tween, 0.01% BSA, 10 mM MgCl2. For compound screening FLT3 (final concentration, f.c.=[…]) or FLT3-ITD (f.c.=[…]) was added using a Multidrop Combi (ThermoFisher Scientific, Waltham, MA) and preincubated for 10 min. Reactions were started by adding fluorescein-poly GT (f.c.=200 nM) and ATP (f.c.=57 μM) substrates. Reactions proceeded for 40 minutes. The reactions were stopped with a detection mixture of EDTA (f.c.=20 mM) and terbium-conjugated anti-phoso tyrosine antibody pY20 (f.c.=2 nM). The plates were sealed and read on an Envision (PerkinElmer, Waltham, MA) using 340 nm excitation and emission reads at 495 and 520 nM.

FLT3 = target: T2, FLT3 (Homo sapiens, UniProt P36888); assay: FLT3 LanthaScreen assay; type: biochemical; conditions: Table 4
T2 sequence (P36888 27-993): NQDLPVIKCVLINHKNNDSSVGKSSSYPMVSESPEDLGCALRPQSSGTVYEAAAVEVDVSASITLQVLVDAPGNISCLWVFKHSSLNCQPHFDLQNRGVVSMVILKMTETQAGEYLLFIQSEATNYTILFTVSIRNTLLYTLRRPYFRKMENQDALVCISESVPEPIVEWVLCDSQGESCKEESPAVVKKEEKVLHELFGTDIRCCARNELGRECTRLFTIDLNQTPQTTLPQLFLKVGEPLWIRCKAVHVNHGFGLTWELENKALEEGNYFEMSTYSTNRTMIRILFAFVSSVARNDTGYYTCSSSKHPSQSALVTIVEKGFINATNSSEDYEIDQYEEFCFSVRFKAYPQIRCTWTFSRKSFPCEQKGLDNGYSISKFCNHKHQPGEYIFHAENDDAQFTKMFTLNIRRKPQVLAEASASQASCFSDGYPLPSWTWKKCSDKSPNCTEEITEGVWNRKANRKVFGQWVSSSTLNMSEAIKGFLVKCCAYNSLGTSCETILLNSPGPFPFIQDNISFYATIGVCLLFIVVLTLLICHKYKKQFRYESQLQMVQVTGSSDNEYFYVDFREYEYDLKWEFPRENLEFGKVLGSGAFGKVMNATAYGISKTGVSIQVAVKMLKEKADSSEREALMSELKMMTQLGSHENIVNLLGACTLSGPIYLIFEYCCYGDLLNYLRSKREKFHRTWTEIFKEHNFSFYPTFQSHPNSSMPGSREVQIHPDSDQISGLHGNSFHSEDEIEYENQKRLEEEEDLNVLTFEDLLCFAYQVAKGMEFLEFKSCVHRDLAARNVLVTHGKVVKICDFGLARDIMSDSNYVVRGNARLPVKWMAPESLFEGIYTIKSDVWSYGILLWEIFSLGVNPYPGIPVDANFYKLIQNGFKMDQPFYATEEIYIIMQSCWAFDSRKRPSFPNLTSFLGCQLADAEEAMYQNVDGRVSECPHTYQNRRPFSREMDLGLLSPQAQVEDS
Description: as §1, §2

PRMT5-MEP50, sequence (O14744 whole entry): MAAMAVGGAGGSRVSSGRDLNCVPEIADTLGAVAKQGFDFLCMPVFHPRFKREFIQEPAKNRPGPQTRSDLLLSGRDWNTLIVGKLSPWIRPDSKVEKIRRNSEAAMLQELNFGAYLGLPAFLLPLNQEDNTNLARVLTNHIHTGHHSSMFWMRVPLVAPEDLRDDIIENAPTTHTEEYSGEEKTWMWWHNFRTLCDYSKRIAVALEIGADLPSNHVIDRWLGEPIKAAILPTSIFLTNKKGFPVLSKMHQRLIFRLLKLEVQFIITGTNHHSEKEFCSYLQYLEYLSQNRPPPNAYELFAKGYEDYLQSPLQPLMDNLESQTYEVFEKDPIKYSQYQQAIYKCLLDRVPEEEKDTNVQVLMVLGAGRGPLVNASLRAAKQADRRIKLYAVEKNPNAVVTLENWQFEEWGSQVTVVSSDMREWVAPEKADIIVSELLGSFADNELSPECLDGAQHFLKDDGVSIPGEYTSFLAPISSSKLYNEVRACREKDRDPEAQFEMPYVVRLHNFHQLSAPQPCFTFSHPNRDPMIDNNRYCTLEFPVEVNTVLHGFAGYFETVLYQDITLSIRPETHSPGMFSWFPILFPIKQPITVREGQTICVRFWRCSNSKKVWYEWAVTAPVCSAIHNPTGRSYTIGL
PRMT5-MEP50, sequence (Q9BQA1 whole entry partner): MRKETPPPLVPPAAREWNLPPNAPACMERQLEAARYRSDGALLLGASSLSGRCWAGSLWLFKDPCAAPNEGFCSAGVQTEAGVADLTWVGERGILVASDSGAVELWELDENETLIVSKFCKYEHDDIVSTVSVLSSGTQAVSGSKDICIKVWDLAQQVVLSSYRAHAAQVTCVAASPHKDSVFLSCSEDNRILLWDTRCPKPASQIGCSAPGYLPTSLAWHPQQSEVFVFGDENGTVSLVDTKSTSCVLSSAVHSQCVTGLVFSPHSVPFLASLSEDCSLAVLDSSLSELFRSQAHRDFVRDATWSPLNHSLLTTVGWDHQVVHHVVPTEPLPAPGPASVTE

| Compound | IC50 (PRMT5-MEP50; Table 3) [nM] | IC50 [1] [nM] | IC50 (METTL3/METTL14; Table 3) [nM] | IC50 (FLT3-ITD) [nM] | IC50 (FLT3) [nM] | IC50 (PRMT5-MEP50; Table 4) [nM] | IC50 (METTL3/METTL14; Table 4) [nM] |
| --- | --- | --- | --- | --- | --- | --- | --- |
| CNc1ccc2ccc(NC(=O)[C@H]3O[C@@H](n4cc(-c5ccn(C)n5)c5c(N)ncnc54)[C@H](O)[C@@H]3O)cc2n1 [Compound I-32, (2S,3S,4R,5R)-5-[4-amino-5-(1-methyl-1H-pyrazol-3-yl)-7H-pyrrolo[2,3-d]pyrimidin-7-yl]-3,4-dihydroxy-N-[2-(methylamino)quinolin-7-yl]oxolane-2-carboxamide] | < 10 | < 1000 | < 10 | – | – | – | – |
| Cn1ccc(-c2cn([C@@H]3O[C@H](C(=O)Nc4ccc5ccc(N6CCC6)nc5c4)[C@@H](O)[C@H]3O)c3ncnc(N)c23)n1 [Compound I-10, (2S,3S,4R,5R)-5-[4-amino-5-(1-methyl-1H-pyrazol-3-yl)-7H-pyrrolo[2,3-d]pyrimidin-7-yl]-N-[2-(azetidin-1-yl)quinolin-7-yl]-3,4-dihydroxyoxolane-2-carboxamide] | 10 to 100 | < 1000 | < 10 | – | – | – | – |
| CN1[C@@H]2CC[C@H]1C[C@@H](NC(=O)[C@H]1O[C@@H](n3cc(-c4ccn(C)n4)c4c(N)ncnc43)[C@H](O)[C@@H]1O)C2 [Compound I-187] | – | – | – | ≥ 1000 | ≥ 1000 | 10 to 100 | 100 to 1000 |
| CN1[C@@H]2CC[C@H]1C[C@H](NC(=O)[C@H]1O[C@@H](n3cc(-c4ccn(C)n4)c4c(N)ncnc43)[C@H](O)[C@@H]1O)C2 [Compound I-205] | – | – | – | ≥ 1000 | ≥ 1000 | 100 to 1000 | 100 to 1000 |
| CN1CCC(NC(=O)[C@H]2O[C@@H](n3cc(-c4ccn(C)n4)c4c(N)ncnc43)[C@H](O)[C@@H]2O)CC1=O (stereo partly drawn) [Compound I-186] | – | – | – | ≥ 1000 | ≥ 1000 | ≥ 1000 | ≥ 1000 |
| CN1CCC(NC(=O)[C@H]2C[C@@H](n3cc(-c4ccn(C)n4)c4c(N)ncnc43)[C@H](O)[C@@H]2O)CC1 [Compound I-44, (1S,2R,3S,4R)-4-[4-amino-5-(1-methyl-1H-pyrazol-3-yl)-7H-pyrrolo[2,3-d]pyrimidin-7-yl]-2,3-dihydroxy-N-(1-methylpiperidin-4-yl)cyclopentane-1-carboxamide] | – | – | – | ≥ 1000 | ≥ 1000 | 10 to 100 | 100 to 1000 |
| Cn1ccc(-c2cn([C@@H]3O[C@H](C(=O)NCC[C@H](N)C(=O)O)[C@@H](O)[C@H]3O)c3ncnc(N)c23)n1 [Compound I-43] | – | – | – | ≥ 1000 | ≥ 1000 | ≥ 1000 | 100 to 1000 |
| CN1CCC[C@@H](NC(=O)[C@H]2O[C@@H](n3cc(-c4ccn(C)n4)c4c(N)ncnc43)[C@H](O)[C@@H]2O)C1 [Compound I-46, (2S,3S,4R,5R)-5-[4-amino-5-(1-methyl-1H-pyrazol-3-yl)-7H-pyrrolo[2,3-d]pyrimidin-7-yl]-3,4-dihydroxy-N-[(3R)-1-methylpiperidin-3-yl]oxolane-2-carboxamide] | – | – | – | ≥ 1000 | ≥ 1000 | 10 to 100 | ≥ 1000 |
| CN1CCC(N(CCCO)C(=O)[C@H]2O[C@@H](n3cc(-c4ccn(C)n4)c4c(N)ncnc43)[C@H](O)[C@@H]2O)CC1 [Compound I-145] | – | – | – | ≥ 1000 | ≥ 1000 | < 10 | 100 to 1000 |

Now from value to molecule:

| IC50 (PRMT5-MEP50; Table 3) [nM] | IC50 [1] [nM] | IC50 (METTL3/METTL14; Table 3) [nM] | IC50 (FLT3-ITD) [nM] | IC50 (FLT3) [nM] | IC50 (PRMT5-MEP50; Table 4) [nM] | IC50 (METTL3/METTL14; Table 4) [nM] | Compound |
| --- | --- | --- | --- | --- | --- | --- | --- |
| – | – | – | ≥ 1000 | ≥ 1000 | 100 to 1000 | 100 to 1000 | CC1CC(NC(=O)[C@H]2O[C@@H](n3cc(-c4ccn(C)n4)c4c(N)ncnc43)[C@H](O)[C@@H]2O)CCN1 (stereo in doubt) [Compound I-212] |
| – | – | – | ≥ 1000 | ≥ 1000 | 10 to 100 | 100 to 1000 | Cn1ccc(-c2cn([C@@H]3O[C@H](C(=O)N[C@H]4CCCNC4)[C@@H](O)[C@H]3O)c3ncnc(N)c23)n1 [Compound I-219] |
| – | – | – | ≥ 1000 | ≥ 1000 | < 10 | 10 to 100 | CN1CCC(N(C(=O)[C@H]2O[C@@H](n3cc(-c4ccn(C)n4)c4c(N)ncnc43)[C@H](O)[C@@H]2O)C2CC2)CC1 [Compound I-149] |
| < 10 | – | < 10 | ≥ 1000 | ≥ 1000 | – | – | CN1CCC(N(CC[C@H](N)C(=O)O)C(=O)[C@H]2O[C@@H](n3cc(-c4ccn(C)n4)c4c(N)ncnc43)[C@H](O)[C@@H]2O)CC1 [Compound I-31, (S)-2-amino-4-((2S,3S,4R,5R)-5-(4-amino-5-(1-methyl-1H-pyrazol-3-yl)-7H-pyrrolo[2,3-d]pyrimidin-7-yl)-3,4-dihydroxy-N-(1-methylpiperidin-4-yl)tetrahydrofuran-2-carboxamido)butanoic acid] |
| – | – | – | ≥ 1000 | ≥ 1000 | < 10 | 100 to 1000 | Cn1ccc(-c2cn([C@@H]3O[C@H](C(=O)N[C@@H]4CCCNC4)[C@@H](O)[C@H]3O)c3ncnc(N)c23)n1 [Compound I-220] |

— patent publication US20240051985A1, “METTL3 MODULATORS” (ACCENT THERAPEUTICS, INC., priority 2020, published 2024)
